In patent US5972357A, “Healthy foods and cosmetics” (Kikkoman Corporation, priority 1996, dated 1999):
Structures can show the parent of a compound that is named as a salt. Where two headings read alike, the source gives them in different places. Each block holds one compound with its values, some of them ahead of it.

What was measured:
gastric ulcer [1] = test: anti-ulcer test against indomethacin-induced gastric ulcer; assay type: in vivo, Wistar/ST male rats; settings: 200 mg/kg oral; for Length of ulcer: 30 minutes before indomethacin (50 mg/kg s.c.), control 47.75 ± 6.08; for Suppression rate: indomethacin ulcer, vs. control
Protocol: Ulcer was induced in Wistar/ST male rats having a weight of about 200 g (6 week-old) by indomethacin as a gastric ulcer inducing agent, and the anti-ulcer effects of the test samples were examined in the following six groups to which test samples were administered.
(§1) Each group comprises six rats.
______________________________________
(§2) Group 1: (control) physiological saline
Group 2: (comparative) cetraxate hydrochloride
Group 3: (the present invention) garcinol
Group 4: (the present invention) garcinol
Group 5: (the present invention) garcinol
Group 6: (the present invention) isogarcinol
In this connection, physiological saline containing 1% sodium carboxymethylcellulose was used as the control, and cetraxate hydrochloride (trade name "Neuer®S", Daiichi Pharmaceuticals Co., Ltd.) which is clinically used as an anti-ulcer agent was used as the comparative sample. The cetraxate hydrochloride insoluble in water was ground into fine powder with a mortar and a pestle and used as a suspension in a 1% sodium carboxymethylcellulose solution. Also, garcinol and isogarcinol in the form of fine powder were used as the suspensions in a 1% sodium carboxymethylcellulose solution in the concentrations which are the doses in the groups. In this connection, garcinol and isogarcinol used in the section of the present invention were those obtained in Referential Examples 1 and 2, respectively.
Experiment was carried out according to the method described by Yamahara et al. (see […] ZASSHI, 114, 401, 1994) which had been slightly modified. That is to say, indomethacin (50 mg/kg) was suspended in 1% sodium carboxymethylcellulose containing 0.1% Tween 20 (Sigma) and injected subcutaneously into the back of 24 hour fasted rats in an amount of 1 ml/rat. The samples in the six sections were orally administered at 30 minutes before administration of indomethacin. After 7 hours from the administration of indomethacin, rats were bleeded to death under anesthetization with nembutal, and stomach was isolated. A phosphate buffer (10 ml) containing 10% formalin was injected into the stomach, which was cut open after 10 minutes, and the length of lesion caused in the glandular stomach portion was defined as the lesion index, which was measured in the mm unit to evaluate the anti-ulcer effect. The suppression rate (%) in Table 1 means the value in which the difference of the length (mm) of ulcer in each group subtracted from the average length, 47.75 (mm) of ulcer in the control was divided with the average length, 47.75 (mm) of ulcer in the control. The larger the value, the stronger the anti-ulcer activity.

bovine serum albumin [2] = test: suppression of generation of reactive oxygen species in the presence of metal ion (oxidation of bovine serum albumin in Fenton reaction); assay type: biochemical; settings: 1 mM test substance, 10 μM copper ion, 20 mM hydrogen peroxide, 4 mg/ml BSA
Protocol: The activity for suppressing the generation of reactive oxygen species in the presence of metal ion was evaluated by measuring the effect for suppressing the oxidation of bovine serum albumin by hydroxyl radical in the Fenton reaction system. That is to say, hydroxyl radical was first produced by divalent copper ion and hydrogen peroxide (Fenton reaction). Bovine serum albumin was oxidized by the hydroxyl radical, and thus carbonyl was produced. The carbonyl was reacted with 2,4-dinitrophenylhydrazine, and determined by measuring the absorbance at 365 nm. […] The ratio of decreases of absorbance was expressed as the activity for suppressing the generation of reactive oxygen species in the presence of metal ion.

[3] = anti-oxidation activity (linoleic acid/β-carotene emulsion, autoxidation); settings: 0.0005% test substance, pH 7.0, 25° C., 460 nm; lesser ratio = stronger
Protocol: The anti-oxidation activities was evaluated according to the method by A. Ben Aziz et al. […] That is to say, an emulsion of linoleic acid and β-carotene was first prepared with Tween 20 (Sigma) and adjusted to pH 7.0 with 0.1 M trishydroxyaminomethane-hydrochloride. […] During the reaction, the color degradation of β-carotene in association with the autoxidation of linoleic acid was measured with the passage of time as the decreased value of the optical density at 460 nm with a spectrophotometer. […] The antioxidant activity was measured as a ratio of the decreasing rate of absorbance in the presence of the substance to be tested to the decreasing rate of absorbance in the absence of the antioxidant.

[4] = anti-oxidation activity in a lipid oxidation process promoted by a metal ion (copper sulfate); settings: 5 μM copper sulfate added; lesser ratio = stronger
Protocol: The anti-oxidation activities was evaluated according to the method by A. Ben Aziz et al. (see Phytochemistry, 10, 1445, 1971). That is to say, an emulsion of linoleic acid and β-carotene was first prepared with Tween 20 (Sigma) and adjusted to pH 7.0 with 0.1 M trishydroxyaminomethane-hydrochloride. To the emulsion was added 0.0005% of a substance to be tested, and the mixture was reacted at 25° C.
During the reaction, the color degradation of β-carotene in association with the autoxidation of linoleic acid was measured with the passage of time as the decreased value of the optical density at 460 nm with a spectrophotometer.
The substance to be tested was a garcinal preparation obtained in Referential Example 1, and vitamin E and (+)-catechin were used as Comparative Example. The antioxidant activity was measured as a ratio of the decreasing rate of absorbance in the presence of the substance to be tested to the decreasing rate of absorbance in the absence of the antioxidant. That is, the substance is judged to have an antioxidant activity when the ratio is less than 1, and thus it is predicated that the lesser the ratio, the stronger the antioxidant activity.
The oxidation process of linoleic acid in Experimental Example 1 is promoted by a metal ion. If 5 μM of copper sulfate is added to the reaction system, the color-degradation rate of β-carotene is promoted by about 30%. When garcinol was added to this system, the ratio of the decreasing rate of absorbance was 0.57. In this connection, it was 0.13 for vitamin E and 0.84 for (+)-catechin.

[5] = superoxide scavenging activity test with phenazine methosulfate; settings: 40 μM final concentration
Protocol: The active oxygen scavenging activity was evaluated according to the superoxide scavenging activity test with phenazine methosulfate. That is to say, dihydronicotinamide adenine dinucleotide and phenazine methosulfate were first reacted in a buffer at a physiological hydrogen ion concentration. The absorbance at 560 nm of a formazan pigment produced by the reduction of Nitro Blue Tetrazolium with superoxide was measured. […] The ratio of decreases of absorbance was expressed as superoxide scavenging activity.

[6] = DPPH radical scavenging activity; settings: 0.0002% test substance, 1.0×10^-4 M DPPH, 25° C., 1 hour, 528 nm
Protocol: The 1,1-diphenyl-2-picrylhydrazyl (DPPH) radical scavenging activity was tested with a garcinol preparation prepared in the similar manner as described in Referential Example 1. That is to say, a 1.0×10^-4 M solution (50% ethanolic) of DPPH was prepared, 0.0002% of a test substance was added, and the decrease of optical density at 528 nm was measured after 1 hour reaction at 25° C. for one hour. In this case, ascorbic acid was used as a standard, the decrease of the absorbance was expressed as 100, and the radical scavenging activity of the test substance was measured as equivalences to ascorbic acid. In this connection, a garcinol preparaion used as the test substance, and vitamin E and (+)-catechin were used as references.

bovine serum albumin [7] = settings: bovine serum albumin/d-fructose, 120 h, 1000 µM, pH 7.4
Protocol: (§3) A solution containing bovine serum albumin (4 mg/ml), 500 mM D-fructose and 200 mM potassium phosphate buffer (pH 7.4) was aseptically prepared. To the solution was added 0.1 mM of a test substance. The substance insoluble in water was added as an ethanolic solution so as the final concentration of ethanol to be less than 1%. After incubation of these solutions at 37° C. for 5 days, equivalent volume of a cold 10% trichloroacetic acid solution was added to the solution to precipitate proteins. The precipitate was collected by centrifugation, further washed with a cold 5% trichloroacetic acid solution, and dissolved again in a 200 mM potassium phosphate buffer. The solution was diluted appropriately with distilled water, and the fluorescence intensity at 425 nm was measured with an excitation wave length at 350 nm in a fluorescence spectrophotometer (Shimadzu Seisakusho, Ltd.). The inhibition activity was calculated from the following equation.
(§4) Inhibition activity (%)=(Fc-Fs)/(Fc-Fb)×100
(§5) Fs: fluorescence intensity in the presence of test substance;
(§6) Fc: fluorescence intensity in the absence of test substance;
(§7) Fb: fluorescence intensity in the absence of fructose.

bovine lens α-crystallin = test: α-crystallin crosslinking polymerization inhibiting activity; assay type: biochemical; settings: 0.1 mM, 500 mM D-fructose, pH 7.4, 37° C., 2 weeks
Protocol: The effect of garcinol on bovine lens α-crystallin crosslinking polymerization reaction was evaluated. […] The gel after electrophoresis was stained with Coomassie Brilliant Blue, and the protein amounts in bands were determined with a densitometer. The crosslinking polymerization inhibiting activity of the protein was calculated from the following equation.
Protein polymerization inhibiting activity (%)=(Ps-Pc)/Pc×100
polymerization degree of protein=band density of polymerized protein/band density of monomer protein;
Ps: polymerization degree of protein in the presence of test substance;
Pc: polymerization degree of protein in the absence of test substance.

bovine serum albumin [8] = test: Maillard reaction inhibiting activity (bovine serum albumin/D-fructose)
Protocol: as §3, §4, §5, §6, §7

gastric ulcer [9] = test: anti-ulcer test against stress ulcer (restrained immersion into water); assay type: in vivo, Wistar/ST male rats; settings: 200 mg/kg oral
Protocol: Gastric ulcer was induced in Wistar/ST male rats having a weight of about 200 g (6 w) by the stress of restrained immersion into water and the anti-ulcer effects of the test samples were examined in the following groups to which test samples were administered.
as §1, §2
Group 2: (comparative) cetraxate hydrochloride 200 mg/kg
Group 3: (the present invention) garcinol 200 mg/kg
In this connection, the test samples in the control, comparative group and the present invention group were prepared in the same manner as in Experimental Example 9.
Rats having fasted for 24 hours were locked up in a restrained dipping cage after 30 minutes from the oral administration of respective test samples. Next, rats were stressed by dipping the cage into water at 23° C. for 7 hours, and bleeded to death under anesthetization with nembutal, and stomach was isolated. A phosphate buffer (10 ml) containing 10% formalin was injected into the stomach, which was cut open after 10 minutes, and the length of lesion caused in the glandular stomach portion was defined as the lesion index, which was measured in the mm unit to evaluate the anti-ulcer effect.
The method for calculating the suppression rate (%) and the meaning of it has been described in Experimental Example 9.

Compound: CC(C)=CC[C@H]1C[C@@]23C[C@@H](CC=C(C)C)C(C)(C)[C@@](CC=C(C)C)(C(=O)C(C(=O)c4ccc(O)c(O)c4)=C2OC1(C)C)C3=O [isogarcinol]
Length of ulcer (gastric ulcer [1]): 22.40 ± 15.3 mm | Suppression rate (gastric ulcer [1]): 53.1%

Compound: Oc1cc(O)c2c(c1)O[C@H](c1ccc(O)c(O)c1)[C@@H](O)C2 [(+)-catechin]
oxidation of bovine serum albumin, result in words (bovine serum albumin [2]): promoted oxidation rather extensively | antioxidant activity (ratio of the decreasing rate of absorbance with to without test substance) [3]: 0.18 | ratio of the decreasing rate of absorbance (antioxidant activity with metal ion) [4]: 0.84 | superoxide scavenging rate [5]: 25% | DPPH radical scavenging activity (equivalences to ascorbic acid = 100) [6]: 73

Maillard reaction inhibition activity (bovine serum albumin [7]): 27%
Compound: CC(C)(S)[C@@H](N)C(=O)O [D-penicillamine]

Compound: O=c1c(O)c(-c2ccc(O)c(O)c2)oc2cc(O)cc(O)c12 [quercetin]
oxidation of bovine serum albumin, result in words (bovine serum albumin [2]): promoted oxidation rather extensively | superoxide scavenging rate [5]: 63% | protein polymerization inhibiting activity (bovine lens α-crystallin): 33%

Compound: N=C(N)NN [Aminoguanidine]
Maillard reaction inhibition activity, result in words (bovine serum albumin [8]; 0.1 mM, 37° C., 5 days, pH 7.4): no activity | Maillard reaction inhibition activity (bovine serum albumin [8]; 1 mM, 7200 min): no more than 43%

Compound: NC[C@H]1CC[C@H](C(=O)Oc2ccc(CCC(=O)O)cc2)CC1 [cetraxate hydrochloride, reference compound]
Length of ulcer (gastric ulcer [9]; restrained water immersion 23° C., 7 hours, control 44.20 ± 18.10): 18.80 ± 6.02 mm | Suppression rate (gastric ulcer [9]; stress ulcer, vs. control): 57.5% | Length of ulcer (gastric ulcer [1]): 14.30 ± 10.9 mm | Suppression rate (gastric ulcer [1]): 70.1%

Compound: vitamin E
antioxidant activity (ratio of the decreasing rate of absorbance with to without test substance) [3]: 0.10 | ratio of the decreasing rate of absorbance (antioxidant activity with metal ion) [4]: 0.13 | DPPH radical scavenging activity (equivalences to ascorbic acid = 100) [6]: 25
